From ChEMBL document CHEMBL1143231, “Specific fluorescent detection of fibrillar alpha-synuclein using mono- and trimethine cyanine dyes” (Bioorg Med Chem, 2008) come the findings set out here.

The species entered for assay [1] is Homo sapiens. The assay can be described thus: Binding affinity to human beta amyloid protein 1-40 from Alzheimers disease patient.
For assay [2], the species on record is Homo sapiens. As to the kind of experiment: Binding affinity to human beta amyloid protein 1-28 from Alzheimers disease patient.

Consider `Cc1ccc2c(c1)sc(-c1ccc(N(C)C)cc1)[n+]2C`, for which the Kb in the assay listed under Homo sapiens [1] is 0.5 10^6/M; in the assay filed under Homo sapiens [2], 1.85 10^6/M.
